Experiments:
[1] = biological target: T1, Ikaros (Homo sapiens, UniProt Q13422); assay: Helios Cellular Degradation Assay, Ikaros readout (flow cytometry, Ikaros-Alexa488 antibody staining, 72 h); type: cell-based; settings: Jurkat cells, 72 h incubation, flow cytometry; for Dmax: Jurkat, read-out: Ikaros Dmax
T1 construct: fluorescently labelled antibodies against Helios and Ikaros; endogenous in cells; host or cells: Jurkat cells
Outline: (§1)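 Jurkat cells (80,000/well, RPMI+10% FBS) were exposed to compound for 72 h at 37 °C, then fixed, permeabilized and co-stained for 1 h with Ikaros-Alexa488 and Helios-PE antibodies. Intracellular protein levels were read by flow cytometry.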

[2] = biological target: T2, Helios (Homo sapiens, UniProt Q96SW2+Q9UKS7); assay: Helios Cellular Degradation Assay (flow cytometry, Helios-PE antibody staining, 72 h); type: cell-based; settings: Jurkat cells, 72 h incubation, flow cytometry; for Dmax: Jurkat, read-out: Helios Dmax
T2 construct: fluorescently labelled antibodies against Helios and Ikaros; endogenous in cells; host or cells: Jurkat cells
T2 sequence (Q9UKS7 whole entry): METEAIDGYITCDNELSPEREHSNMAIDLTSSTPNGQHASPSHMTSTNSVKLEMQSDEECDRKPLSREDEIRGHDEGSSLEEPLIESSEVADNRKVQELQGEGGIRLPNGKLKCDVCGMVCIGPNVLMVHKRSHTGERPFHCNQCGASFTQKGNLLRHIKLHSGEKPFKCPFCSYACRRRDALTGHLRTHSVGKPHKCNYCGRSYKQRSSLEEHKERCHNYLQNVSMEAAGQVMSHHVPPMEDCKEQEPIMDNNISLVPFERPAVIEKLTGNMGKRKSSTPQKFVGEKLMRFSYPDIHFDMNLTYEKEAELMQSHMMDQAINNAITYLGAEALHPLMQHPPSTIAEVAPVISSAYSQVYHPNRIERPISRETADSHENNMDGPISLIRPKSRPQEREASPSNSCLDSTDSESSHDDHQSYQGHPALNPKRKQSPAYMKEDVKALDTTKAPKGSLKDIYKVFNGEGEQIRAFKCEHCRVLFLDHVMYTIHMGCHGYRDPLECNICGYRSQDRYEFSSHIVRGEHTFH
T2 sequence (Q96SW2 whole entry): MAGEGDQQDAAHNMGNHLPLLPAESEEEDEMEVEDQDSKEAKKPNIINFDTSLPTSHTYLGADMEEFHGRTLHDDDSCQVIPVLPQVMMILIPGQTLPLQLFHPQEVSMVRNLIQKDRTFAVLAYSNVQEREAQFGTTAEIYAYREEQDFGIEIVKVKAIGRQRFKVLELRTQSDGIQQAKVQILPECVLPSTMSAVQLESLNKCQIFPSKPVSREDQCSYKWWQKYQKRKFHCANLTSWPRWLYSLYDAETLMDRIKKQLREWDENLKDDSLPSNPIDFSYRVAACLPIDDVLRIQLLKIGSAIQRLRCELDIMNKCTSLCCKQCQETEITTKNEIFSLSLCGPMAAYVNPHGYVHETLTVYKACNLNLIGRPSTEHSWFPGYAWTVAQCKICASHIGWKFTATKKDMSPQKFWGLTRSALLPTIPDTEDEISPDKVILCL
T2 sequence (Q16531 whole entry partner): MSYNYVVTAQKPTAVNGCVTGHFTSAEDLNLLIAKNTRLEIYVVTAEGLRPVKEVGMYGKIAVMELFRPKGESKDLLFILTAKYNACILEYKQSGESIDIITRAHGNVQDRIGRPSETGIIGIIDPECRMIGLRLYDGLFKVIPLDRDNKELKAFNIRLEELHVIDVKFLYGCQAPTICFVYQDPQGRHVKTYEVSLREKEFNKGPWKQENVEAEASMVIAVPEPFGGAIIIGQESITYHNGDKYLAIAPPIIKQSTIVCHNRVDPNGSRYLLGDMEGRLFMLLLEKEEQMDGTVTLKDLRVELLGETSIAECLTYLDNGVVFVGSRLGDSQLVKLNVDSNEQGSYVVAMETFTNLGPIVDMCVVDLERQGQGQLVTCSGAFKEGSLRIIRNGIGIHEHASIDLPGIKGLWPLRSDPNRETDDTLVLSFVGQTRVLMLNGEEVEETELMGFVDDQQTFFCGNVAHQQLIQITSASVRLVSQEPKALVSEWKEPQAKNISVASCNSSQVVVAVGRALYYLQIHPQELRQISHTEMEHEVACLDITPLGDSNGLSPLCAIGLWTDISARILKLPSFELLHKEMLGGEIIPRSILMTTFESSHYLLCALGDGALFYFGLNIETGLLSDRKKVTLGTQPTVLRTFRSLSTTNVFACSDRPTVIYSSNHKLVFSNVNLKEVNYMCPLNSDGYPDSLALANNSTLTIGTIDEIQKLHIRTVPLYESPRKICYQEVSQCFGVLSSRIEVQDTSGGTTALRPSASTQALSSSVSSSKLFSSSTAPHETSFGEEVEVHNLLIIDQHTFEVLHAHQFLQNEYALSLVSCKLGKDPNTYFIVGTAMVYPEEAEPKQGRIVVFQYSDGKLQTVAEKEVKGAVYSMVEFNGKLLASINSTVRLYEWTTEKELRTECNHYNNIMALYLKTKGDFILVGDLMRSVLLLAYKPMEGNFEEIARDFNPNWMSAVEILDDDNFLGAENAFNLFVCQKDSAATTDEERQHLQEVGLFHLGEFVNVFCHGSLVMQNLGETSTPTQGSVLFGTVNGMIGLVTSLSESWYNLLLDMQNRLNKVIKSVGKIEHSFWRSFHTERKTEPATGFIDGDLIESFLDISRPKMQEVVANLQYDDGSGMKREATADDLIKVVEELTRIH
Outline: as §1

T1 sequence (Q96SW2 whole entry partner): as the sequence (Q96SW2 whole entry) above
T1 sequence (Q16531 whole entry partner): as the sequence (Q16531 whole entry partner) above
T1 sequence (Q13422 whole entry): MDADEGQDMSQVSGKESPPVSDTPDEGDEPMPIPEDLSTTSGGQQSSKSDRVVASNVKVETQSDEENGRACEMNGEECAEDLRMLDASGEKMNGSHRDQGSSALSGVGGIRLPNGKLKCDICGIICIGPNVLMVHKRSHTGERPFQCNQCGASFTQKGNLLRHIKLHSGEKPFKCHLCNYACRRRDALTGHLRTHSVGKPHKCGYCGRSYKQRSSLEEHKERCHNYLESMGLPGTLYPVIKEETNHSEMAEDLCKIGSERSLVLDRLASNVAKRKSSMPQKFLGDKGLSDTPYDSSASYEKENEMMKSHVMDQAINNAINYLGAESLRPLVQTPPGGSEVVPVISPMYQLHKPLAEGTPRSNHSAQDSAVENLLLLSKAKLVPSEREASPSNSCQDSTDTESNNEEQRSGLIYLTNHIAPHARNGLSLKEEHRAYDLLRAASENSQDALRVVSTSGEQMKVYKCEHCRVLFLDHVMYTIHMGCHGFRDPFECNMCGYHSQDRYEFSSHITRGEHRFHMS

Row | SMILES | DC50 [1] | Dmax [1] | DC50 [2] | Dmax [2] | Ikaros Dmax [1] | Helios Dmax [2]
1 | O=C1CCC(N2Cc3cc(-c4cc(CNCCO)ccn4)ccc3C2=O)C(=O)N1 (stereo not shown) [Example 92, 3-(5-(4-(((2-hydroxyethyl)amino)methyl)pyridin-2-yl)-1-oxoisoindolin-2-yl) piperidine-2,6-dione] | > 10 µM | 11% | 209 nM | 92% |  | 
2 | CN1CCC[C@H]1CC1CCCCN1Cc1ccnc(-c2ccc3c(c2)CN(C2CCC(=O)NC2=O)C3=O)c1 (stereo partly drawn) [Example 30, 3-(5-(4-((2-(((S)-1-methylpyrrolidin-2-yl)methyl)piperidin-1-yl)methyl)pyridin-2-yl)-1-oxoisoindolin-2-yl)piperidine-2,6-dione] | > 10 µM | -1% | > 10000 nM | 46% |  | 
3 | O=C1CCC(N2Cc3cc(-c4cc(CN5CCN(C(=O)c6ccco6)CC5)ccn4)ccc3C2=O)C(=O)N1 (stereo not shown) [Example 24, 3-(5-(4-((4-(furan-2-carbonyl)piperazin-1-yl)methyl)pyridin-2-yl)-1-oxoisoindolin-2-yl)piperidine-2,6-dione] | > 10 µM | 11% | > 10000 nM | 3% |  | 
4 | C[C@@H]1CCC[C@H](C)N1Cc1ccnc(-c2ccc3c(c2)CN(C2CCC(=O)NC2=O)C3=O)c1 (stereo partly drawn) [Example 120, 3-(5-(4-(((2R,6S)-2,6-dimethylpiperidin-1-yl)methyl)pyridin-2-yl)-1-oxoisoindolin-2-yl)piperidine-2,6-dione] | > 10 µM | 3% | 85 nM | 84% |  | 
5 | O=C1CCC(N2Cc3cc(-c4cc(CNCCc5ccc(Cl)cc5)ccn4)ccc3C2=O)C(=O)N1 (stereo not shown) [Example 94, 3-(5-(4-(((4-chlorophenethyl)amino)methyl)pyridin-2-yl)-1-oxoisoindolin-2-yl)piperidine-2,6-dione] | > 10 µM | 11% | 35 nM | 74% |  | 
6 | CN(Cc1cccc(OC(F)(F)F)c1)Cc1ccnc(-c2ccc3c(c2)CN(C2CCC(=O)NC2=O)C3=O)c1 (stereo not shown) [Example 156, 3-(5-(4-((methyl(3-(trifluoromethoxy)benzyl)amino)methyl)pyridin-2-yl)-1-oxoisoindolin-2-yl)piperidine-2,6-dione] | > 10 µM | 11% | 1830 nM | 56% |  | 
7 | O=C1CCC(N2Cc3cc(-c4cc(CN5CCN(Cc6ccc7c(c6)OCO7)CC5)ccn4)ccc3C2=O)C(=O)N1 (stereo not shown) [Example 12, 3-(5-(4-((4-(benzo[d][1,3]dioxol-5-ylmethyl)piperazin-1-yl)methyl)pyridin-2-yl)-1-oxoisoindolin-2-yl)piperidine-2,6-dione] | > 10 µM | 16% | > 10000 nM | 37% |  | 
8 | O=C1CCC(N2Cc3cc(-c4cc(CN5CCS(=O)(=O)CC5)ccn4)ccc3C2=O)C(=O)N1 (stereo not shown) [Example 167, 4-({2-[2-(2,6-Dioxopiperidin-3-yl)-1-oxo-2,3-dihydro-1H-isoindol-5-yl]pyridin-4-yl}methyl)-1λ6-thiomorpholine-1,1-dione] | > 10 µM | 12% | > 10000 nM | 41% |  | 
9 | C[C@@H]1CCCN(Cc2ccnc(-c3ccc4c(c3)CN(C3CCC(=O)NC3=O)C4=O)c2)C1 (stereo partly drawn) [Example 75, 3-(5-(4-(((R)-3-methylpiperidin-1-yl)methyl)pyridin-2-yl)-1-oxoisoindolin-2-yl)piperidine-2,6-dione] | > 10 µM | 10% | 14 nM | 94% |  | 
10 | Cc1cccc(N2CCN(Cc3ccnc(-c4ccc5c(c4)CN(C4CCC(=O)NC4=O)C5=O)c3)CC2C)c1 (stereo not shown) [Example 27, 3-(5-(4-((3-methyl-4-(m-tolyl)piperazin-1-yl)methyl)pyridin-2-yl)-1-oxoisoindolin-2-yl)piperidine-2,6-dione] | > 10 µM | 7% | > 10000 nM | 36% |  | 
11 | NC(=O)CNCc1ccnc(-c2ccc3c(c2)CN(C2CCC(=O)NC2=O)C3=O)c1 (stereo not shown) [Example 100, 2-(((2-(2-(2,6-dioxopiperidin-3-yl)-1-oxoisoindolin-5-yl)pyridin-4-yl)methyl)amino) acetamide] | > 10 µM |  | 6130 nM |  | 6% | 55%

The next lines start with the values.

Row | DC50 [1] | Dmax [1] | DC50 [2] | Dmax [2] | Ikaros Dmax [1] | Helios Dmax [2] | SMILES
12 | > 10 µM | 30% | 869 nM | 63% |  |  | CN1CCN(Cc2ccnc(-c3ccc4c(c3)CN(C3CCC(=O)NC3=O)C4=O)c2)CC1 (stereo not shown) [Example 35, 3-(5-(4-((4-methylpiperazin-1-yl)methyl)pyridin-2-yl)-1-oxoisoindolin-2-yl)piperidine-2,6-dione]
13 | > 10 µM | 0% | 783 nM | 57% |  |  | C[C@H]1CCCN1Cc1ccnc(-c2ccc3c(c2)CN(C2CCC(=O)NC2=O)C3=O)c1 (stereo partly drawn) [Example 69, 3-(5-(4-(((S)-2-methylpyrrolidin-1-yl)methyl)pyridin-2-yl)-1-oxoisoindolin-2-yl)piperidine-2,6-dione]
14 | > 10 µM | 10% | 499 nM | 83% |  |  | CC(CO)N(C)Cc1ccnc(-c2ccc3c(c2)CN(C2CCC(=O)NC2=O)C3=O)c1 (stereo not shown) [Example 181, 3-(5-(4-(((1-hydroxypropan-2-yl)(methyl)amino)methyl)pyridin-2-yl)-1-oxoisoindolin-2-yl) piperidine-2,6-dione]
15 | > 10 µM | 8% | 7 nM | 92% |  |  | C[C@H](NCc1ccnc(-c2ccc3c(c2)CN(C2CCC(=O)NC2=O)C3=O)c1)c1ccccc1 (stereo partly drawn) [Example 123, 3-(1-oxo-5-(4-((((S)-1-phenylethyl)amino)methyl)pyridin-2-yl)isoindolin-2-yl) piperidine-2,6-dione]
16 | > 10 µM | 12% | 788 nM | 63% |  |  | CN(CCc1ccccn1)Cc1ccnc(-c2ccc3c(c2)CN(C2CCC(=O)NC2=O)C3=O)c1 (stereo not shown) [Example 16, 3-(5-(4-((methyl(2-(pyridin-2-yl)ethyl)amino)methyl)pyridin-2-yl)-1-oxoisoindolin-2-yl) piperidine-2,6-dione]
17 | > 10 µM | 7% | > 10000 nM | 3% |  |  | O=C1CCC(N2Cc3cc(-c4cc(CN5CCC(C(c6ccccc6)c6ccccc6)CC5)ccn4)ccc3C2=O)C(=O)N1 (stereo not shown) [Example 42, 3-(5-(4-((4-benzhydrylpiperidin-1-yl)methyl)pyridin-2-yl)-1-oxoisoindolin-2-yl)piperidine-2,6-dione]
18 | > 10 µM | 10% | 9 nM | 91% |  |  | CC(NCc1ccnc(-c2ccc3c(c2)CN(C2CCC(=O)NC2=O)C3=O)c1)c1ccccc1 (stereo not shown) [Example 55, 3-(1-oxo-5-(4-(((1-phenylethyl)amino)methyl)pyridin-2-yl)isoindolin-2-yl) piperidine-2,6-dione]
19 | > 10 µM | 10% | 167 nM | 76% |  |  | CN(Cc1ccnc(-c2ccc3c(c2)CN(C2CCC(=O)NC2=O)C3=O)c1)Cc1cnc2ccccc2n1 (stereo not shown) [Example 183, 3-(5-(4-((methyl (quinoxalin-2-ylmethyl)amino)methyl)pyridin-2-yl)-1-oxoisoindolin-2-yl)piperidine-2,6-dione]

Reference: patent publication US11548870B2, “Compounds useful as inhibitors of helios protein” (Bristol-Myers Squibb Company, priority 2019, dated 2023)
